Test results as given in PubChem BioAssay AID2615 (Southern Research Specialized Biocontainment Screening …, 2010).

Test system: BSC cells SV40 infection, CPE inhibition
Assay: antiviral efficacy and BSC cell toxicity – BSC cells, SV40 T antigen inhibitor project, confirmation (AID 2615)
Conditions: measured here: cytotoxicity in BSC cells

ClC(Cl)(c1nnnn1-c1ccccc1)c1nnnn1-c1ccccc1
TC50: 34 µM
